Calls of active or inactive are those of the source. No rule for the calls is given here.

The values below come from PubChem BioAssay AID686957 (The Scripps Research Institute Molecular Screening Center, 2013).

The target in the assay is T-cell receptor (TCR)-CD3 interaction, human (TCR alpha chain TRAV4). Kind of assay: IC50 for blocking TCR-CD3 binding – biochemical, fluorescence, TAMRA-labeled TCR probe, dose response (AID 686957).
With `O=C(N/N=C/c1sc(=O)[nH]c1-[n+]1ccc2ccccc2c1)c1ccccc1[O-]`, the IC50 (commonly the concentration that gives 50% inhibition) is > 94.1 µM (inactive).
Consider `Nc1ccc2nc3c(=O)[nH]c(=S)[nH]c3nc2c1`, for which the half-maximal inhibitory concentration (IC50) was 3.74 µM.
For the molecule `O=c1c2ccccc2c(C=Nc2ccccc2O)c(O)n1-c1nccs1`, the IC50 is > 94.1 µM (inactive).
In the case of `COC(=O)Nc1ccc(S(=O)(=O)NNC(=O)c2c(O)c3ccccc3[nH]c2=O)cc1`, the IC50 is > 94.1 µM (inactive).
The figure for `O=C1/C(=C/c2ccco2)SC(=S)N1c1cccnc1` is > 94.1 µM (inactive); for `Cc1ccccc1NC(=O)NNC(=O)c1ccc2ccccc2c1O` it is > 94.2 µM (inactive).
The figure for `COc1cc(O)c(/C=N/NC(=O)c2ccncc2)c(OC)c1[N+](=O)[O-]` is > 94.1 µM (inactive); for `CC(=O)NNC(=S)NC(=O)c1ccc(C)cc1` it is > 94 µM (inactive); for `O=C(NNC(=O)c1cc2ccccc2cc1O)Nc1ccc(F)cc1F` it is > 94.1 µM (inactive).
On to `O=C(NNC(=O)c1ccc2ccccc2c1O)c1ccccc1Cl`, for which the IC50 is > 94.1 µM (inactive).
Then `Cc1ccc(OCC(=O)c2c(N)n(C)c(=O)n(C)c2=O)c([N+](=O)[O-])n1`, with “inactive”; and `COC(=O)CC1(C(=O)OC)Nc2cc(Cl)c(Cl)cc2S(=O)(=O)N1O` (stereo unspecified), with > 94.2 µM (inactive); and `COc1cc([N+](=O)[O-])cc(/C=N/NC(=O)c2cc(C)nc3ccccc23)c1O`, with > 94.1 µM (inactive).
Regarding `CC(=O)c1ccc(NC(=O)CN2C(=O)/C(=C/C(C)=C/c3ccccc3)SC2=S)cc1`, the IC50 was > 94.1 µM (inactive).
Then `O=C(N/N=C/c1cc([N+](=O)[O-])ccc1O)/C(=C\c1cccs1)NC(=O)c1ccccc1`, with > 94.1 µM (inactive); and `O=C(CNC(=O)c1ccccc1Br)N/N=C\c1cc([N+](=O)[O-])cc(Br)c1O`, with > 94.1 µM (inactive); and `Cc1cc(Br)cc(/C=N/NC(=O)c2ccc3c(c2)OCO3)c1O`, with > 94.1 µM (inactive).
The figure for `Cc1nc2ccccc2n1CC(=O)c1ccc(O)c(O)c1` is > 94 µM (inactive).
For the molecule `O=[N+]([O-])c1ccc(O)c(/C=N/NC(=S)Nc2ccc(Cl)cc2Cl)c1`, the IC50 was > 94.1 µM (inactive).
Then `CCC1=NN(C(=O)c2cccc([N+](=O)[O-])c2)C(O)(c2ccc(C)cc2)C1` (stereo unspecified), with > 94.1 µM (inactive).
As to `O=C(N/N=C/c1cccnc1)c1cc(O)c(O)c(O)c1`, the IC50 is > 94 µM (inactive).
As for `O=C(O)c1ccccc1/C=N/NC(=O)c1cc(-c2ccco2)nc2ccccc12`, the IC50 is > 94.1 µM (inactive).
With `CCn1c(C)nc2cc(C(=O)NNC(=S)NC(=O)c3ccccc3)ccc21`, the IC50 is > 94.1 µM (inactive).
With `CNC(=S)NNC(=O)c1cccn(Cc2cccc(Cl)c2)c1=O`, the IC50 is > 94.1 µM (inactive).
Then `Cc1ccc(/C=C2\SC(=S)N(CCC(=O)NNC(=O)c3ccccc3O)C2=O)cc1`, with > 94.1 µM (inactive); and `O=C(NNC(=O)c1ccc2ccccc2c1O)NC1CCCCC1`, with > 94.1 µM (inactive).
The figure for `Cc1ccccc1C(=O)Nc1cccc(C(=O)N/N=C/c2cc(Cl)cc([N+](=O)[O-])c2O)c1` is > 94.1 µM (inactive); for `Cc1nc(S/C(=C\c2ccc(-c3ccc(C(=O)O)c(Cl)c3)o2)C(=O)O)n[nH]1` it is > 94.1 µM (inactive); for `CNC(=S)N/N=C/c1cc(Br)cc(Br)c1O` it is > 94.1 µM (inactive).
The figure for `Oc1ccc(C[C@H]2NCCc3cc(O)c(O)cc32)cc1O` is > 94.1 µM (inactive); for `O=C(CSc1nnc(-c2ccccc2)n1Cc1ccccc1)NNC(=O)c1ccccc1O` it is > 94.1 µM (inactive).
